The record followed here is PMC5050210, “BdorOBP83a-2 Mediates Responses of the Oriental Fruit Fly to Semiochemicals” (Frontiers in Physiology, 2016).

Structures are written as SMILES.

What all share (test): direct fluorescence titration
Format in all cases: binding
Common to all, as to details: 50 mM Tris-HCl pH 7.4, 25°C; 2 μM protein, 1-16 μM 1-NPN; fluorescent probe

One experiment has as its target T1, BdorOBP83a-1 (Bactrocera dorsalis, UniProt A0A0G2UGI4).
T1 construct: gene OBP83a-1; mature protein without signal peptide
T1 sequence (A0A0G2UGI4 32-155): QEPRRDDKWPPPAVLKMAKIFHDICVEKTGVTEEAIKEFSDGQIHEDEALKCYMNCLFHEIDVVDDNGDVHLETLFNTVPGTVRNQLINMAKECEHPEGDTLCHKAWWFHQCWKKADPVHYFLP

The target of another experiment is T2, BdorCSP3 (Bactrocera dorsalis, UniProt A0A0G2UMR0).
T2 construct: gene CSP3; mature protein without signal peptide
T2 sequence (A0A0G2UMR0 23-156): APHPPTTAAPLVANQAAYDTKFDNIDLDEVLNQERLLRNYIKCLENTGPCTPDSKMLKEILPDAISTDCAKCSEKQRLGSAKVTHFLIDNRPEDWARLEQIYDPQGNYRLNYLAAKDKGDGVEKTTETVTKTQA

A further experiment has as its target T3, BdorOBP84a-1 (Bactrocera dorsalis, UniProt A0A0G2UGI7).
T3 construct: gene OBP84a-1; mature protein without signal peptide
T3 sequence (A0A0G2UGI7 25-167): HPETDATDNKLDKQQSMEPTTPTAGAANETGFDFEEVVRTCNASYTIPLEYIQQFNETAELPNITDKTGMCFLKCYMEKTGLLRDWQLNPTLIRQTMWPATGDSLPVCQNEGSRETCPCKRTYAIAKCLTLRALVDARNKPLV

A further experiment deals with T4, BdorOBP84a-2 (Bactrocera dorsalis, UniProt A0A0G2UEQ7).
T4 construct: gene OBP84a-2; mature protein without signal peptide
T4 sequence (A0A0G2UEQ7 26-170): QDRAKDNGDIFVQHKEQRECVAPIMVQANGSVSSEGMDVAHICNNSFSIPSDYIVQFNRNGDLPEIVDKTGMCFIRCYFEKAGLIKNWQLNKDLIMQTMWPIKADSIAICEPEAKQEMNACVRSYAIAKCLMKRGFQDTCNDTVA

Another experiment addresses T5, BdorOBP83a-2 (Bactrocera dorsalis, UniProt A0A0G2UEQ3).
T5 construct: gene OBP83a-2; mature protein without signal peptide
T5 sequence (A0A0G2UEQ3 24-148): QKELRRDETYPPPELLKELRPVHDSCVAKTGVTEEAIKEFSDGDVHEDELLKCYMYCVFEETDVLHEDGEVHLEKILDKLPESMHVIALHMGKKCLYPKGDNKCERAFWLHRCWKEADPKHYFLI

Another experiment concerns the target T6, BdorOBP56h (Bactrocera dorsalis, UniProt A0A0G2UMU0).
T6 construct: gene OBP56h; mature protein without signal peptide
T6 sequence (A0A0G2UMU0 20-136): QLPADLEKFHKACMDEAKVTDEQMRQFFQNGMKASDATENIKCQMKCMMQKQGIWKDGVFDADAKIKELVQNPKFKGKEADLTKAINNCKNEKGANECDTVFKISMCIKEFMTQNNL

With `c1ccc(Nc2cccc3ccccc23)cc1` [1-NPN], the K1-NPN result at BdorOBP83a-1, on BdorCSP3, on BdorOBP84a-1, on BdorOBP84a-2, at BdorOBP83a-2 and on BdorOBP56h was “exhibited high affinity to the fluorescent probe 1-NPN” each time.
